{
  "source": "patent US8053197B2",
  "about": "“Methods for detecting and treating autoimmune disorders” (Oregon Health & Science University, priority 2004, dated 2011)",
  "test_system": "Treg compartment",
  "test": "Treg compartment (CD25, Foxp3 mRNA, FoxP3 protein) in naïve mice treated with E2 for 14 days",
  "format": "in vivo, C57BL/6 mice",
  "experimental": "Quadrant statistics noted are percent of live gate.\nFIG. 5 is a graph illustrating real-time PCR analysis of Foxp3 mRNA in CD4+ cells from FIG. 4. Data are presented as Foxp3 relative to housekeeping gene L32. Error bars are standard deviation of triplicate samples.\nCells were pooled from 8-10 mice before sorting.\nFor E2 therapy, a 3 mm pellet containing 2.5 mg or 15 mg (as indicated) 17β-estradiol (Innovative Research of America, Sarasota, Fla.) was implanted s.c. (dorsally) 7 days prior to immunization (EAE) or 14 days prior to analysis of naïve mice. These pellets are designed to release their contents at a constant rate over 60 days. Control animals were implanted with pellets containing saline. Serum levels of E2 were monitored by RIA.\nSingle-cell suspensions were prepared from spleens and RBCs lysed. Non-immunized mice receiving E2 pellets were sacrificed 14 days after implantation, while immunized mice were sacrificed at the peak of EAE disease severity, approximately 17 days after induction. […]\nFor real-time RT-PCR analysis, total RNA was prepared using the Total RNeasy kit (Qiagen, Germantown, Md.) and cDNA was prepared using random hexamer primers (Invitrogen, Grand Island, N.Y.). Foxp3 message expression was quantified using the ABI 7000 Real-Time PCR System (Applied Biosystems, Foster City, Calif.). Amplification was performed in a total volume of 25 μl for 40 cycles and products were detected using SYBR Green I dye (Molecular Probes, Eugene, Oreg.). Samples were run in triplicate and relative expression level was determined by normalization to L32 with results presented as relative expression (RE) units. […] For analysis of FoxP3 protein, cells were washed in PBS then lysed and sonicated in lysis buffer {25 mM Tris pH 8.5, 2% lithium dodecyl sulfate, 1 mM EDTA, 10 mM sodium fluoride, 1 mM sodium orthovanadate, and 1× Complete protease inhibitors (Roche Diagnostics, Mannheim, Germany)} and quantified by BCA (Pierce, Rockford, Ill.). […] FoxP3 was detected with rabbit-anti-FoxP3 antiserum and standard chemiluminescence. […]",
  "data": [
    {"compound": "C[C@]12CC[C@@H]3c4ccc(O)cc4CC[C@H]3[C@@H]1CC[C@@H]2O", "note": "[E2, 17β-estradiol]", "values": [
      {"measurement": "FoxP3 protein", "result": "increase"},
      {"measurement": "Foxp3 mRNA in CD4+ cells", "result": "increase"},
      {"measurement": "increase in the fraction of CD25+ cells among all CD4+ cells versus untreated mice", "result": 43, "unit": "%"}
    ]}
  ]
}
